{"source": "patent US20020107228A1", "about": "“Topical bisphosphonates for prevention of bone resorption” (Merck & Co., Inc, priority 1996, published 2002)", "key": {"[1]": {"system": "alveolar bone resorption", "details": "Yaffe et al. 1995, cited from earlier work"}, "[2]": {"system": "Wistar rats", "details": "topical, 1 mm GELFOAM pellet soaked in 0.025 ml of 20 mg/ml alendronate in saline, in situ at least two hours; sacrifice 21 days after surgery; vs GELFOAM-only control side", "description": "Wistar rats were used in the following experiment. The right side of the mandible was used as the experimental side and the left side was used as the control.\nThe rats were anesthetized prior to surgery using a mixture of 25 mg/kg body weight of KETALAR (Malgene, Lyon, France) and 42 mg/kg body weight of XYLAZINE (Rampun Bayer, Leverkusen, Germany) intraperitoneally (IP).\nA mucoperiosteal flap was made on both the buccal and lingual aspects in the region of premolars and molars on both sides of the mandible, two quadrants per rat. The flap was elevated using a special small periosteal elevator. A 1 mm diameter piece of GELFOAM (Upjohn Co., Kalamazoo, Mich.) which was soaked in 0.025 ml alendronate solution (below) was applied to the alveolar bone on both buccal and lingual aspects on the experimental (right) side and the flap was then readapted immediately in place without sutures.\nThe alendronate solution was prepared by dissolving 20 mg alendronate in 1 ml saline.\nA GELFOAM pellet of 1 mm diameter, identical to the alendronate-soaked pellet, but lacking the alendronate, was applied to the alveolar bone in the control side. The entire procedure lasted about 20-40 seconds. The GELFOAM pellets remained in situ for at least two hours while the anesthesia was effected. The rats were fed a soft diet for 24 hours after surgery to avoid flap displacement. […]"}, "[3]": {"system": "Wistar rats", "details": "sacrifice 3 weeks after flap", "description": "63 Wistar rats were used in this experiment, and were divided into the four groups. Group A: 15 rats received 0.05 mg/kg body weight of alendronate. Group B: 15 rats received 0.25 mg/kg body weight of alendronate. Group C: 15 rats received 0.5 mg/kg body weight of alendronate. Group D was the control group, where 18 rats received saline. The alendronate sodium or saline was administered one week prior to surgery, at the day of surgery before the surgery was performed, and one week following surgery. The drug was administered IV in the dorsal vein of the penis.\nIn one experiment, one group of rats were anesthetized prior to surgery or alendronate administration using a mixture of 25 mg/kg body weight of KETALAR (Malgene, Lyon France), and 42 mg/kg body weight XYLAZINE (Rampun Bayer, Leverkusen, Germany) intraperitoneally (IP). A portion of these rats also received 25 mg/kg alendronate IP. […] The flap was elevated using a special small periosteal elevator, and readapted immediately in place without sutures. […]\nIn another set of experiments, alendronate was applied locally at three dose levels using a wet gauze sponge soaked with a solution of 0.15, 0.75, and 1.5 mg/ml on the exposed bone on the experimental side and saline on the exposed bone on the control side for 10 seconds. Since the sponge could absorb 0.1 ml, the maximum calculated amount of drug applied was 0.5 mg/kg body weight. […]"}}}
{"compound": "NCCCC(O)(P(=O)(O)O)P(=O)(O)O", "note": "[alendronate, 4-amino-1-hydroxy-butylidene 1,1,-bisphosphonic acid]", "values": [{"measurement": "inhibiting bone resorption following surgery", "setting": "[1]; alendronate solutions applied topically", "result": "not found to be effective"}, {"measurement": "amount of alveolar bone resorption following surgery", "setting": "[1]; intravenous administration", "result": "reduce"}, {"measurement": "bone resorption (alveolar bone, X-ray microradiography)", "setting": "[2]", "result": "inhibited"}, {"measurement": "alveolar bone resorption (X-ray microradiography)", "setting": "[3]; IV, all doses (0.05, 0.25, 0.5 mg/kg), one week before, day of and one week after surgery", "result": "reduced"}, {"measurement": "effect on reducing bone resorption (alveolar bone, X-ray microradiography)", "setting": "[3]; applied locally for 10 seconds on alveolar bone during surgery, wet gauze sponge, 0.15, 0.75 and 1.5 mg/ml", "result": "no noticeable effect"}]}
